Reference: ChEMBL document CHEMBL3804756 (J Med Chem, 2016)

Molecular target: Histamine H1 receptor (Homo sapiens, UniProt P35367)
Assay: Displacement of [3H]mepyramine from human histamine H1 receptor expressed in sf9 cell membrane co-expressing RGS4 incubated for 60 mins by liquid scintillation counting method

Chain of Histamine H1 receptor (P35367 whole entry): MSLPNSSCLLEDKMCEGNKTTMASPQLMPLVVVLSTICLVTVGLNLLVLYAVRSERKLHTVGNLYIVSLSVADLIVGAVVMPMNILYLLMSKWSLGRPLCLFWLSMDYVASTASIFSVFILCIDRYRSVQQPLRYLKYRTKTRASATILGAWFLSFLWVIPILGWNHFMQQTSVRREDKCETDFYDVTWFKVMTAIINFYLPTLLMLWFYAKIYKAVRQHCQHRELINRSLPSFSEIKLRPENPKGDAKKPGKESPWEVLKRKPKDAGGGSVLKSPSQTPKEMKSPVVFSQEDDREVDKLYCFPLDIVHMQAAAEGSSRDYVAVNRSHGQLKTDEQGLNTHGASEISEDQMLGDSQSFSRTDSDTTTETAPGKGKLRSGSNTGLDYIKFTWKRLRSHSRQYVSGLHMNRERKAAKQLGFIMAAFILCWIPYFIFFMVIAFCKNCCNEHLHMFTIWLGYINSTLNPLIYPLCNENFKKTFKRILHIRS

| SMILES | Ki |
| --- | --- |
| CC(C)CN/C(=N/C#N)NC[C@@H]1CC[C@H](c2c[nH]cn2)C1 (racemic) | 8350 nM |
| N#C/N=C(/NCCNc1ccccc1)NC[C@@H]1CC[C@H](c2c[nH]cn2)C1 (racemic) | > 10000 nM |
| N#C/N=C(/NCCNc1ccccc1)NC[C@H]1CC[C@H](c2c[nH]cn2)C1 (racemic) | > 10000 nM |
| N#C/N=C(/NCCSc1ccccc1)NC[C@H]1CC[C@H](c2c[nH]cn2)C1 (racemic) | 6080 nM |
| N#C/N=C(/NCCCc1ccccc1)NC[C@@H]1CC[C@H](c2c[nH]cn2)C1 (racemic) | 9350 nM |
| N#C/N=C(/NCCOc1ccccc1)NC[C@@H]1CC[C@H](c2c[nH]cn2)C1 (racemic) | > 10000 nM |
| N#C/N=C(/NCCSc1ccccc1)NC[C@@H]1CC[C@H](c2c[nH]cn2)C1 (racemic) | 3800 nM |
| N#C/N=C(/NCCCc1ccccc1)NC[C@H]1CC[C@H](c2c[nH]cn2)C1 (racemic) | > 10000 nM |
| N#C/N=C(\NC[C@@H]1CC[C@H](c2c[nH]cn2)C1)NC1CC1 (racemic) | > 10000 nM |

Molecular target: T1, Histamine H2 receptor (Homo sapiens, UniProt P25021)
Assay: Antagonist activity at human histamine H2 receptor expressed in sf9 cell membrane co-expressing Gsalphas assessed as inhibition of histamine-induced [35S]GTPgammaS binding incubated for 90 mins
Assay type: functional

T1 sequence (P25021 whole entry): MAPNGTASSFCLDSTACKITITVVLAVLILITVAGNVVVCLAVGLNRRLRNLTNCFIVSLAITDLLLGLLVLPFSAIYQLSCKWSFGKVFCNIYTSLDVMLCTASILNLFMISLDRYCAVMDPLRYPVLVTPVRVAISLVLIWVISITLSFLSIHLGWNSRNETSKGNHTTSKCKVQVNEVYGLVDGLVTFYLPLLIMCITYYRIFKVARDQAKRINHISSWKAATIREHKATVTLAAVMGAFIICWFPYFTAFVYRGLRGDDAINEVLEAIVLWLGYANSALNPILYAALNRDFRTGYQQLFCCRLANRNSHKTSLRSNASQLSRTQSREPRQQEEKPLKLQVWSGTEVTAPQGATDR

| SMILES | Kb |
| --- | --- |
| CC(C)CN/C(=N/C#N)NC[C@@H]1CC[C@H](c2c[nH]cn2)C1 (racemic) | > 10000 nM |
| N#C/N=C(/NCCNc1ccccc1)NC[C@@H]1CC[C@H](c2c[nH]cn2)C1 (racemic) | > 10000 nM |
| N#C/N=C(/NCCNc1ccccc1)NC[C@H]1CC[C@H](c2c[nH]cn2)C1 (racemic) | > 10000 nM |
| N#C/N=C(/NCCCc1ccccc1)NC[C@@H]1CC[C@H](c2c[nH]cn2)C1 (racemic) | > 10000 nM |
| N#C/N=C(/NCCOc1ccccc1)NC[C@@H]1CC[C@H](c2c[nH]cn2)C1 (racemic) | > 10000 nM |
| N#C/N=C(/NCCCc1ccccc1)NC[C@H]1CC[C@H](c2c[nH]cn2)C1 (racemic) | > 10000 nM |
| N#C/N=C(\NC[C@@H]1CC[C@H](c2c[nH]cn2)C1)NC1CC1 (racemic) | > 10000 nM |

Molecular target: T1, Histamine H2 receptor
Assay: Intrinsic activity at human histamine H2 receptor expressed in sf9 cell membrane co-expressing Gsalphas at 10 uM incubated for 90 mins by [35S]GTPgammaS binding assay relative to histamine
Assay type: functional

| SMILES | Intrinsic activity |
| --- | --- |
| CC(C)CN/C(=N/C#N)NC[C@@H]1CC[C@H](c2c[nH]cn2)C1 (racemic) | 0 |
| N#C/N=C(/NCCNc1ccccc1)NC[C@@H]1CC[C@H](c2c[nH]cn2)C1 (racemic) | 0 |
| N#C/N=C(/NCCNc1ccccc1)NC[C@H]1CC[C@H](c2c[nH]cn2)C1 (racemic) | 0 |
| N#C/N=C(/NCCCc1ccccc1)NC[C@@H]1CC[C@H](c2c[nH]cn2)C1 (racemic) | 0 |
| N#C/N=C(/NCCOc1ccccc1)NC[C@@H]1CC[C@H](c2c[nH]cn2)C1 (racemic) | 0 |
| N#C/N=C(/NCCCc1ccccc1)NC[C@H]1CC[C@H](c2c[nH]cn2)C1 (racemic) | 0 |
| N#C/N=C(\NC[C@@H]1CC[C@H](c2c[nH]cn2)C1)NC1CC1 (racemic) | 0 |

Molecular target: T2, Histamine H3 receptor (Homo sapiens, UniProt Q9Y5N1)
Assay: Antagonist activity at human histamine H3 receptor expressed in sf9 cell membrane co-expressing mammalian Galphai2 and Gbeta1gamma2 assessed as inhibition of histamine-induced [35S]GTPgammaS binding incubated for 90 mins
Assay type: functional

T2 sequence (Q9Y5N1 whole entry): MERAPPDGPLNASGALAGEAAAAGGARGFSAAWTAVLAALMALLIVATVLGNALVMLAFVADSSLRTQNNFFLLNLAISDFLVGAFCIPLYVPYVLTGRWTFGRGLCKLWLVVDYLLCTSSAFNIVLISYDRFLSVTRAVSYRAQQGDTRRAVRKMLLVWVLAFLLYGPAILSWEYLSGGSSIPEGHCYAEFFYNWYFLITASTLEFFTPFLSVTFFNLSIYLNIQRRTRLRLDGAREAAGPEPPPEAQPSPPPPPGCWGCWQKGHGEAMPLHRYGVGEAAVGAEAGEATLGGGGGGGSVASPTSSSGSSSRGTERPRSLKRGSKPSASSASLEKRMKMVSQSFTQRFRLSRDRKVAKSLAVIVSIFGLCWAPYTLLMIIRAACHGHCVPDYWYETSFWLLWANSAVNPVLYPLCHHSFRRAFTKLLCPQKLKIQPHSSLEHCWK

| SMILES | Kb |
| --- | --- |
| N#C/N=C(/NCCNc1ccccc1)NC[C@@H]1CC[C@H](c2c[nH]cn2)C1 (racemic) | 402 nM |
| N#C/N=C(/NCCNc1ccccc1)NC[C@H]1CC[C@H](c2c[nH]cn2)C1 (racemic) | 408 nM |
| N#C/N=C(/NCCCc1ccccc1)NC[C@@H]1CC[C@H](c2c[nH]cn2)C1 (racemic) | 70 nM |
| N#C/N=C(/NCCOc1ccccc1)NC[C@@H]1CC[C@H](c2c[nH]cn2)C1 (racemic) | 328 nM |
| N#C/N=C(/NCCCc1ccccc1)NC[C@H]1CC[C@H](c2c[nH]cn2)C1 (racemic) | 325 nM |

Molecular target: T2, Histamine H3 receptor
Assay: Agonist activity at human histamine H3 receptor expressed in sf9 cell membrane co-expressing mammalian Galphai2 and Gbeta1gamma2 incubated for 90 mins by [35S]GTPgammaS binding assay
Assay type: functional

| SMILES | EC50 |
| --- | --- |
| CC(C)CN/C(=N/C#N)NC[C@@H]1CC[C@H](c2c[nH]cn2)C1 (racemic) | 858 nM |
| N#C/N=C(\NC[C@@H]1CC[C@H](c2c[nH]cn2)C1)NC1CC1 (racemic) | 1530 nM |

Molecular target: T2, Histamine H3 receptor
Assay: Intrinsic activity at human histamine H3 receptor expressed in sf9 cell membrane co-expressing mammalian Galphai2 and Gbeta1gamma2 at 10 uM incubated for 90 mins by [35S]GTPgammaS binding assay relative to histamine
Assay type: functional

| SMILES | Intrinsic activity |
| --- | --- |
| CC(C)CN/C(=N/C#N)NC[C@@H]1CC[C@H](c2c[nH]cn2)C1 (racemic) | 0.5 |
| N#C/N=C(/NCCNc1ccccc1)NC[C@@H]1CC[C@H](c2c[nH]cn2)C1 (racemic) | 0 |
| N#C/N=C(/NCCNc1ccccc1)NC[C@H]1CC[C@H](c2c[nH]cn2)C1 (racemic) | 0 |
| N#C/N=C(/NCCCc1ccccc1)NC[C@@H]1CC[C@H](c2c[nH]cn2)C1 (racemic) | 0 |
| N#C/N=C(/NCCOc1ccccc1)NC[C@@H]1CC[C@H](c2c[nH]cn2)C1 (racemic) | 0 |
| N#C/N=C(/NCCCc1ccccc1)NC[C@H]1CC[C@H](c2c[nH]cn2)C1 (racemic) | -0.19 |
| N#C/N=C(\NC[C@@H]1CC[C@H](c2c[nH]cn2)C1)NC1CC1 (racemic) | 0.28 |

Molecular target: T2, Histamine H3 receptor
Assay: Displacement of [3H]N-alpha-methylhistamine from human histamine H3 receptor expressed in sf9 cell membrane co-expressing mammalian Galphai2 and Gbeta1gamma2 incubated for 60 mins by liquid scintillation counting method

| SMILES | Ki |
| --- | --- |
| N#C/N=C(/NCCSc1ccccc1)NC[C@H]1CC[C@H](c2c[nH]cn2)C1 (racemic) | 1230 nM |
| N#C/N=C(/NCCSc1ccccc1)NC[C@@H]1CC[C@H](c2c[nH]cn2)C1 (racemic) | 1350 nM |

Molecular target: T3, Histamine H4 receptor (Homo sapiens, UniProt Q9H3N8)
Assay: Agonist activity at human histamine H4 receptor expressed in sf9 cell membrane co-expressing mammalian Galphai2 and Gbeta1gamma2 incubated for 90 mins by [35S]GTPgammaS binding assay
Assay type: functional

T3 sequence (Q9H3N8 whole entry): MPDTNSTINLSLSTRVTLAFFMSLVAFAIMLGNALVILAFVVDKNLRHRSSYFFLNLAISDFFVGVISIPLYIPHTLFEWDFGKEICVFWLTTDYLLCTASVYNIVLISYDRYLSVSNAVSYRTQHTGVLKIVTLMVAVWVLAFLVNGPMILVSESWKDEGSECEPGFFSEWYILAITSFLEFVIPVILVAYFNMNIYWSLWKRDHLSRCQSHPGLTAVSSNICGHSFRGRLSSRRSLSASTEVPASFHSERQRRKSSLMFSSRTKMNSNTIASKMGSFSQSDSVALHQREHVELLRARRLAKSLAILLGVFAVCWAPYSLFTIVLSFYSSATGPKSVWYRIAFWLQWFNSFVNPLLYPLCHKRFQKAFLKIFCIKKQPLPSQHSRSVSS

| SMILES | EC50 |
| --- | --- |
| CC(C)CN/C(=N/C#N)NC[C@@H]1CC[C@H](c2c[nH]cn2)C1 (racemic) | 202 nM |
| N#C/N=C(/NCCSc1ccccc1)NC[C@H]1CC[C@H](c2c[nH]cn2)C1 (racemic) | 14 nM |
| N#C/N=C(/NCCCc1ccccc1)NC[C@@H]1CC[C@H](c2c[nH]cn2)C1 (racemic) | 372 nM |
| N#C/N=C(/NCCSc1ccccc1)NC[C@@H]1CC[C@H](c2c[nH]cn2)C1 (racemic) | 129 nM |
| N#C/N=C(/NCCCc1ccccc1)NC[C@H]1CC[C@H](c2c[nH]cn2)C1 (racemic) | 125 nM |
| N#C/N=C(\NC[C@@H]1CC[C@H](c2c[nH]cn2)C1)NC1CC1 (racemic) | 245 nM |

Molecular target: T3, Histamine H4 receptor
Assay: Displacement of [3H]UR-PI294 from human histamine H4 receptor expressed in sf9 cell membrane co-expressing mammalian Galphai2 and Gbeta1gamma2 incubated for 60 mins by liquid scintillation counting method

| SMILES | Ki |
| --- | --- |
| N#C/N=C(/NCCSc1ccccc1)NC[C@H]1CC[C@H](c2c[nH]cn2)C1 (racemic) | 99 nM |
| N#C/N=C(/NCCSc1ccccc1)NC[C@@H]1CC[C@H](c2c[nH]cn2)C1 (racemic) | 250 nM |
